Laboratory results taken from patent publication US20040022734A1, “Dihydroporphyrin derivatives and their uses” (priority 2000, published 2004).

Experiments:
[1] = tested on: C6 cells; experiment: Intracellular localization and pharmacokinetics in C6 cells by fluorescent imaging; format: cell-based; settings: FIG. 3; for Incorporation at one hour of incubation (intracellular fluorescence): 1 hour
Description: So as to confirm the potential use of the mentioned compounds for the production of a photosensitive composition administrable to a living creature and useful as an agent adapted to give rise, under the influence of irradiation, to cytolysis or necrosis at least partially of at least one target region of the human or animal body, a visualization was conducted of the localization in vitro of the SIMO1 molecule, as well as the determination of the pharmacokinetics compared to m-THPC, by fluorescent imaging so as to confirm that the mentioned compounds were capable of penetrating the cells. Thus, C6 cells were seeded at a rate of 10^5 cells/ml on circular glass plates after trypsinization. After 24 hours, cells were incubated with SIMO1 (10 μg/ml) at 37° C. for 3 hours and then washed with PBS (pH 7.2). Fluorescence analysis of SIMO1 (emitting at 650 nm) was carried out after excitation of 450 nm to 480 nm with a 150 watt Xenon lamp by using a black and white video camera with very sensitive detection of photons (Kappa CF 8/4; Fischer Scientific S.A., France), connected to an optical microscope (Olympus BX 40, France) provided with an oil immersion objective magnifying 100 times.

[2] = tested on: cellular tumor HT29 obtained initially from human colorectal adenocarcinoma; experiment: In vivo phototoxicity: growth of HT29 tumor grafts in nude mice after injection and laser irradiation; settings: for Activity on tumor growth, SIMO1 versus m-THPC: 2 mg/kg intra-peritoneal, irradiation 6 hours and 12 hours after injection, FIG. 5
Description: To establish these conclusions, the following procedure was used: Swiss male nude/nude mice aged 7 to 9 weeks (weight range 25-35 g) were obtained from Iffa-Credo (L'arbresle, France).
The test method is that of the cellular tumor HT29 obtained initially from human colorectal adenocarcinoma.
The tumor grafts were obtained as follows: nonnecrotic solid tumor tissues (diameter 1 to 2 cm) were removed immediately after death of the donor mouse and then mechanically crushed in 1 ml of a 0.9% saline solution. This solution (0.2 ml) was injected sub-cutaneously into the rear paw of each mouse. This tumor was used one week later, when its diameter was 18-20 mm. […] The wavelength was illumination was selected between 652-653 nm.
The light source was a diode laser at 652 nm.
The luminous density was maintained below 0.3 W.cm^−2, at doses at which the thermal effects are indetectable. A single irradiation was carried out and the time of exposure was calculated as a function of the diameter of the tumor to obtain an energy density of 300 J/cm^−2 at a predetermined constant light density.
Each day, the index of tumor growth was measured by using a slide foot, the principal orthogonal diameters being added and divided by a factor of 2.
A statistical characteristic of the growth index between treated and control mice (without light or SIMO1) was carried by using the Student test.

[3] = In vivo spectrofluorimetric measurement of incorporation and retention in muscle, skin and tumor of mice grafted with HT-29; settings: 2 mg/kg
Description: For these tests, the following was the procedure: spectrofluorimetric measurements were carried out on mice grafted with HT-29 at different intervals of time after injection of 2 mg/kg^−1 of m-THPC or SIMO1. The tested times were 3, 6, 12, 24, 48 and 144 hours on mice.
The level of fluorescence were recorded in different tissues, namely the muscle, the skin and the tumor. The measurements were taken by using an optical fiber placed directly in contact with the tissues. At least four spectra per tissue and per mouse were recorded (at least five mice were used for each experimental condition). Muscle, skin and tumor were successively studied.
The emission spectra of fluorescence of untreated mice tissue were recorded at three separate times so as to estimate the intermouse variations. The values of fluorescent intensity mentioned in FIG. 6 correspond for each organ to the result of the difference between the value of fluorescence obtained in a treated mouse and the value of fluorescence recorded in the control group. The results of spectrofluorometric measurement in vivo were expressed in beats per second (arbitrary unit).

[4] = tested on: C6 cells; experiment: Phototoxicity of SIMO1 on C6 cells (laser irradiation, MTT count); format: cell-based; settings: 20 joules/cm^2 diode laser
Description: C6 cells were cultured in flasks of 25 cm^2 (Polylabo, Strasbourg, France) in an RPMI medium supplemented with 10% (V/V) of fetal calf serum (FCS), 100 units of penicillin mL^−1, […] of streptomycin and 2 mM of glutamine.
The cells were replicated by dispersion culturing with 0.025% of trypsin in 0.02% ethylene-diaminotetracetic acid (EDTA) for a contact time of 2 minutes and returned to adhere at a dilution of 1:3, which maintain the cells in the exponential phase of growth. The cells were verified on a regular basis by contamination of the mycoplasms.
The cells thus cultivated were subjected to a photodynamic treatment. Aliquots (11 μl) of the photosensitizing solution SIMO1 were added to C6 cells adhered in wells of plates with 96 wells after trypsonation, as described above. The cellular concentration was 5.10^4 cells/ml^−1 (100 μl per well). The final concentration of the solutions of SIMO1 was comprised within the range of 0.5 to 50 μg/ml. Immediately after addition of the photosensitizer SIMO1, the plates of cells were held in complete darkness till the time of counting, except for a laser irradiation of the cells treated with PDT. The fresh medium containing FCS but free from photosensitizer was prepared before laser irradiation. […]
The optical density of each well of the microplates was then read at 570 nm by means of a Uniskan Titertack (Flow Laboratories, Puteaux, France). […]

[5] = tested on: C6 cells; experiment: Toxicity of SIMO1 on non-irradiated C6 cells (MTT count); format: cell-based
Description: C6 cells were cultured in flasks of 25 cm^2 (Polylabo, Strasbourg, France) in an RPMI medium supplemented with 10% (V/V) of fetal calf serum (FCS), 100 units of penicillin mL^-1, […] of streptomycin and 2 mM of glutamine. The cells were replicated by dispersion culturing with 0.025% of trypsin in 0.02% ethylene-diaminotetracetic acid (EDTA) for a contact time of 2 minutes and returned to adhere at a dilution of 1:3, which maintain the cells in the exponential phase of growth. The cells were verified on a regular basis by contamination of the mycoplasms. The cells thus cultivated were subjected to a photodynamic treatment. Aliquots (11 μl) of the photosensitizing solution SIMO1 were added to C6 cells adhered in wells of plates with 96 wells after trypsonation, as described above. The cellular concentration was 5.10^4 cells/ml^-1 (100 μl per well). The final concentration of the solutions of SIMO1 was comprised within the range of 0.5 to 50 μg/ml. Immediately after addition of the photosensitizer SIMO1, the plates of cells were held in complete darkness till the time of counting, except for a laser irradiation of the cells treated with PDT. The fresh medium containing FCS but free from photosensitizer was prepared before laser irradiation. A laser with a diode at 650 nm was used. The power of the end of the fiber was adjusted, by using a device for measuring power (Coherent, France), at 500 mW. The light was transmitted to the target by an optical fiber at a distance of 20 mm so as to irradiate the cells in the wells 6 mm in diameter within a single field providing an illumination of all of the region. The time of exposure was 13 seconds per well at 650 nm, supplying an energy density of 20 J/cm^2. The cells were incubated with SIMO1 for 5 or 20 hours. For phototoxicity tests, the cells were washed and the medium was replaced immediately before laser irradiation. […] The optical density of each well of the microplates was then read at 570 nm by means of a […] […]

Molecule	Incorporation at one hour of incubation (intracellular fluorescence) [1]	Time of maximum intracellular concentration (fluorescence) after incubation [1]	Activity on tumor growth, SIMO1 versus m-THPC [2]	Detection of photosensitive agent in tissues 144 hours after injection ([3]; 144 hours after injection)	DL50, phototoxic treatment ([4]; 5 hours of incubation)	DL50, phototoxic treatment ([4]; 20 hours of incubation)	DL50, toxicity (non-irradiated) [5]	SIMO1 toxicity (non-irradiated) ([5]; C6 cells, 5 hours of incubation, no irradiation)	Concentration short of which harmless in the absence of luminous irradiation ([5]; C6 cells, no irradiation)	Retardation between intra-peritoneal injection and laser irradiation giving the most marked effects ([2]; 5 mg/kg intra-peritoneal, 300 J/cm^2, FIG. 4)	Slowing of growth of the tumor ([2]; HT-29 grafted nude mice, 5 mg/kg intra-peritoneal, 12 hours between injection and irradiation, 300 J/cm^2 at 652 nm, twelve days after treatment)	Growth of the tumor compared to the untreated control group ([2]; all tested conditions: irradiation 2, 6, 12, 24, 48 hours after 5 mg/kg intra-peritoneal, 300 J/cm^2)	Detection of photosensitive agent in tissues after 48 hours ([3]; 48 hours after injection)	Retention time in all the tissues compared to m-THPC ([3]; muscle, skin and tumor, FIG. 6)
Oc1cccc(-c2c3nc(c(-c4cccc(O)c4)c4ccc([nH]4)c(-c4cccc(O)c4)c4nc(c(-c5cccc(O)c5)c5ccc2[nH]5)CC4)C=C3)c1 [m-THPC, reference compound]	small incorporation	increases to 6 hours	comparable activity	still detectable										
2,3-dihydro-5, 15-Bis(3,5-dihydroxy-1-phenyl)-prohyrin [SIMO1]	high incorporation	3 h	comparable activity		1.75 µg/mL	0.45 µg/mL	29 µg/mL	no toxicity was detected	about 20 μg/ml	12 h	40%	reduction of growth of the tumor	no photosensitive agent was detected	shorter
